From patent US20020160968A1, “Inhibitors of cellular niacinamide mononucleotide formation and their use in cancer therapy” (Klinge Pharma GmbH, priority 1999, published 2002)

Target: T1, niacinamide phosphoribosyltransferase (NAPRT, EC 2.4.2.12) (Homo sapiens, UniProt P43490)
T1 construct: protamine-treated cytoplasmic fraction of K-562 cells as the enzyme source; endogenous in cells; host or cells: K-562 (ATCC CCL 243), freeze-thaw lysate, 23,000 x g supernatant treated with protamine sulfate
Test: Niacinamide phosphoribosyltransferase (NAPRT) assay, protamine-treated cytoplasmic fraction of K-562 cells
Type: biochemical
Settings: for NAM: niacinamide mononucleotide formed, controls 79.1 and 71.8; for NA: niacinamide remaining, controls 389.7 and 397.0; for NAM [%] / NA [%]: portion of total radioactivity
Procedure: The effect of the compounds on the enzyme niacinamide phosphoribosyltransferase (NAPRT, EC 2.4.2.12) was investigated using for example protamine-treated cytoplasmic fraction of K-562 cells as the enzyme source according to the NAPRT assay described in the experimental part below. The investigated compounds were used in concentrations of 10 μM, except for K22387 and K22133 where the concentration was 1 μM.
The assay is based on the amount of radioactive incorporation from ^14C-labelled niacinamide into niacinamide mononucleotide (NAM). NAM is subsequently separated from niacinamide (NA) by thin-layer chromatography and its quantity is determined by autoradiography.
Niacinamide Phosphoribosyltransferase (NAPRT) Assay
The human cell line K-562 (chronic myelogenous leukaemia) is obtained from the American Type Culture Collection (ATCC CCL 243), Rockville, Md., USA. The K-562 cells are cultured in RPMI (Sigma, Deisenhofen, Germany, Product No.: R6504) containing 10% foetal calf serum (PAN Systems GmbH, Aidenbach, Germany), 2.2 g/l NaHCO3 (Merck, Darmstadt, Germany), 50,000 IU/l penicillin and 50 mg/l streptomycin (Sigma).
The K-562 cells are grown in RPMI supplemented with 10% FCS at 37° C. and 100% humidity in a 5% CO2 atmosphere up to a density of 2×10^6 cells per ml. Under these conditions, the cells grow logarithmically with a generation time of 24 hours. The cells are harvested by aspiration and centrifugation (250×g, 10 min, RT). Thereafter, the cells are washed at least 3 times by repeated centrifugation (250×g, 10 min, RT) and resuspension in CMF-PBS. After counting the cell suspension in a haematocytometer, the cells are spun into a tight pellet (390×g, […], RT) and the supernatant is carefully drawn off with a Pasteur pipette. The cells are then vortexed into suspension in sufficient lysis buffer to give a final concentration of 3×10^7 cells per ml. The suspension is frozen at −80° C. for at least one day and thawed slowly at room temperature to break up the cells. The breakage is usually greater than 95%, as determined by trypan blue exclusion. Following centrifugation at 23,000×g for 90 min at 0° C., the clarified supernatant is recovered on ice and 70 μl of 1% protamine sulfate is added per ml of supernatant. After 15 min on ice, the cloudy suspension is centrifuged a further 30 min at 23,000×g and 0° C. The final supernatant is stored in small aliquots at […] This supernatant contains about 950 to 1440 μg protein per ml. 120 to 140 μg protein per sample is used in the NAPRT assay (total assay volume: 0.5 ml).
The niacinamide phosphoribosyltransferase activity is determined in a reaction solution of 0.5 ml consisting of 5 mM MgCl2, 2 mM ATP, 0.5 mM PRPP, and [^14C]niacinamide (10^−5 M to 10^−7 M) in 50 mM Tris buffer pH 8.8 (final concentrations in the assay). The reaction is started by adding 100 to 120 μl cell extract. After incubation for 1 hour at 37° C., the enzyme reaction is stopped by adding cold niacinamide (50 μl of a 100 mM niacinamide solution per 0.5 ml reaction mixture) and by heating on a heating block (2 min, 105° C.). The precipitate is removed by centrifugation (2,500×g, 10 min, 4° C.) and the supernatant is collected into a […] polypropylene vial with screw cap and stored at −20° C. until further analysis. A 10 μl aliquot is taken from the supernatant to determine the total amount of radioactivity.
The ^14C-labelled components of the reaction mixture are separated and identified using thin-layer chromatography (TLC). 5 to 7.5 μl of each sample is transferred to a cellulose TLC foil using an automated sample applicator. The cellulose foil is developed using 1 M NH4 acetate:ethanol (3:7) as solvent. The chromatogram is run with added non-radioactive standards of NAD, NADP, NAM and niacinamide, and the spots were identified by UV absorption (RF values see Table 7). For autoradiography, the chromatogram is exposed to an imaging plate BAS-IIIs in a hypercassette for at least two days. […]

[1] = compound 10 μM, controls 16.88 and 15.32
[2] = compound 10 μM, controls 83.12 and 84.68

T1 sequence (P43490 whole entry): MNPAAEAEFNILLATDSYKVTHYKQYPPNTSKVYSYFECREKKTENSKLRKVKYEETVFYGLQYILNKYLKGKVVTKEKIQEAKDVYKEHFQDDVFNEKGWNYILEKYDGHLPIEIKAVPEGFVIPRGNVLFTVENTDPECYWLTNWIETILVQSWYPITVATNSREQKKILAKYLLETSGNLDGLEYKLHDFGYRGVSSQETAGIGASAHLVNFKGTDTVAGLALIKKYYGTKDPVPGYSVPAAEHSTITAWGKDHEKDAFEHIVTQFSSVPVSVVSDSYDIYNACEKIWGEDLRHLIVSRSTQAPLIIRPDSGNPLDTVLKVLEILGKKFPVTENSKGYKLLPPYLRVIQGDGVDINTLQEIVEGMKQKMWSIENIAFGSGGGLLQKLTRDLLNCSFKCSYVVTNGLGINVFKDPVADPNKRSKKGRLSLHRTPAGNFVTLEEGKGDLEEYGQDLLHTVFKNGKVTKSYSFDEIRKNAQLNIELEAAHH

Cn1c(CCNC(=O)/C=C/c2cccnc2)ccc1CN1CCN(C(c2ccccc2)c2ccccc2)CC1 [Compound K22350, N-{2-[5-(4-benzhydryl-piperazine-1-yl-methyl)-1-methyl-1H-pyrrole-2-yl]-ethyl}-3-pyridine-3-yl-acrylamide]
NAM (compound 10 μM): 0.0 pmol/h | NA (compound 10 μM): 468.8 pmol/h | NAM [%] [1]: 0.00% | NA [%] [2]: 100.00%

O=C(NCCCCC1CCN(S(=O)(=O)c2ccc3ccccc3c2)CC1)Nc1cccnc1 [Compound K22365, 1-{4-[1-(naphthalene-2-sulfonyl)-piperidine-4-yl)-butyl}-3-pyridine-3-yl-urea]
NAM (compound 10 μM): 0.0 pmol/h | NA (compound 10 μM): 468.8 pmol/h | NAM [%] [1]: 0.00% | NA [%] [2]: 100.00%

O=C(NCCCCC1CCN(C(=O)N2c3ccccc3CCc3ccccc32)CC1)Nc1cccnc1 [Compound K22387, 1-{4-[1-(1,11-dihydro-dibenzene[b,f]azepine-5-carbonyl)-piperidine-4-yl]-butyl}-3-pyridine-3-yl-urea]
NAM (compound 1 μM): 0.0 pmol/h | NA (compound 1 μM): 468.8 pmol/h | NA [%] (compound 1 μM): 100.00% | NAM [%] (compound 1 μM): 0.00%

NC(Cc1ccc(O)c(N=Nc2ccccc2C(=O)N2CCC(CCCCNC(=O)/C=C/c3cccnc3)CC2)c1)C(=O)O (stereo not shown) [Compound K22408, 2-amino-3-[4-hydroxy-3-(2-{4-[4-(3-pyridine-3-yl-acryloyl-amino)-butyl]-piperidine-1-carbonyl}-phenylazo)-phenyl]-propanoic acid trihydrate]
NAM (compound 10 μM): 0.0 pmol/h | NA (compound 10 μM): 468.8 pmol/h | NAM [%] [1]: 0.00% | NA [%] [2]: 100.00%
